Reference: US20260250630A1, “PROTEOMICS-BASED RECEPTOR-LIGAND MATCHING FOR OPTIMIZING STEM CELL REPROGRAMMING” (OKINAWA INSTITUTE OF SCIENCE AND TECHNOLOGY SCHOOL …, priority 2021, published 2026)
“Also recorded” adds a separate entry of the source.

Legend:
[1] = tested on: calyx of Held; experiment: Simultaneous pre- and postsynaptic action potential recordings, fidelity of neurotransmission; assay type: cell-based, rat; details: p<0.01, n=6
Source text: (§1) Wistar rats (postnatal day 13-15) of either sex were killed by decapitation under isoflurane anesthesia. Transverse brainstem slices (175-200 μm in thickness) containing the medial nucleus of the trapezoid body (MNTB) were cut in ice-cold solution containing (in mM): 200 sucrose, 2.5 KCl, 26 NaHCO3, 1.25 NaH2PO4, 6 MgCl2, 10 glucose, 3 myo-inositol, 2 sodium pyruvate, and 0.5 sodium ascorbate (pH 7.4 when bubbled with 95% O2 and 5% CO2, 310-320 mOsm) by using vibroslicer (VT1200S, Leica). Before recording, slices were incubated for 1 h at 37° C. in standard aCSF solution containing (in mM): 125 NaCl, 2 KCl, 26 NaHCO3, 1.25 NaH2PO4, 2 CaCl2), 1 MgCl2, 10 glucose, 3 myo-inositol, 2 sodium pyruvate, and 0.5 sodium ascorbate (pH 7.4 when bubbled with 95% O2 and 5% CO2, 310-320 mOsm), and maintained thereafter at room temperature (24-26° C.). MNTB principal neurons and calyx of Held presynaptic terminals were visually identified using a ×40 water immersion objective attached to an upright microscope (BX51WI, Olympus).
For recording postsynaptic action potentials (APs), simultaneous pre- and postsynaptic whole-cell recordings were made from calyceal terminals and postsynaptic MNTB principal neurons, both in current-clamp mode, in the presence of bicuculline methiodide (10 µM) and strychnine hydrochloride (0.5 μM). […]

[2] = tested on: calyx of Held presynaptic terminals; experiment: EPSC recording at the calyx of Held, short-term depression and recovery; assay type: cell-based, rat
Source text: as §1
For recording of evoked EPSCs, simultaneous pre- and postsynaptic whole-cell recordings were made from a calyceal nerve terminal and postsynaptic cell. Throughout the experiments, presynaptic recordings were made in current-clamp mode, whereas postsynaptic recordings were made in voltage-clamp mode at a holding potential of −70 mV. Pipette solution for recording of presynaptic action potentials (APs) contained (mM): 110 K-gluconate, 10 L-glutamate, 30 KCl, 10 HEPES, 0.5 EGTA, 12 Na2-phosphocreatine, 3 MgATP, 1 MgCl2, 0.3 Na2GTP (315 mOsm, pH 7.3 adjusted with KOH), and that for postsynaptic recording contained (mM): 110 CsF, 30 CsCl, 10 HEPES, 5 EGTA, 1 MgCl2, 5 QX314-CI (300 mOsm, pH 7.3 adjusted with CsOH). EPSCs were evoked by current injection (0.5-1 nA, 1 ms) into the presynaptic terminal via a recording glass electrode, in the presence of bicuculline methiodide (10 µM) and strychnine hydrochloride (0.5 μM).

[3] = tested on: calyx of Held presynaptic terminals; experiment: Membrane capacitance measurement of exo-endocytosis at the calyx of Held; assay type: cell-based, rat; details: LP-935509 1 or 10 µM in presynaptic terminals
Source text: as §1
Membrane capacitance measurement from the calyx of Held presynaptic terminals, in whole-cell configurations, were made at room temperature (RT, 26-27° C.). Data were acquired at a sampling rate of 50 KHz, using an EPC-10 patch-clamp amplifier controlled by PatchMaster software (HEKA) after on-line filtering at 5 KHz. Calyx of Held terminals were voltage-clamped at a holding potential of −80 mV and a sinusoidal voltage command with a peak-to-peak voltage of 60 mV was applied at 1 KHz. Aak1 inhibitor LP935509 (Axon MedChem) was dissolved in DMSO (0.1%), which was also included in pipette solution, and infused from whole-cell pipettes into calyceal terminals by diffusion. […]
Single-pulse step depolarization to +10 mV for 20 ms was used to induce presynaptic QCa. […] The amplitude of exocytic Cm change (ΔCm) was measured as the difference of Cm values between the baseline and those at 450-500 ms after depolarization. […] The half decay time of endocytosis was measured from the midpoint of ΔCm decay.

[4] = tested on: human ipsc-derived neurons (iN); experiment: Spontaneous synaptic currents in iPSC-derived neurons (iN); assay type: cell-based; details: addition of CNQX
Source text: FIG. 14A-14E. The differentiated neurons (iN) in culture are making functional synapses. • A) DIC image of human ipsc-derived neurons (iN) in culture of DIV25.

[5] = from cumulative histograms of EPSC amplitudes

SMILES | transmission fidelity (output/input AP ratio), level declined to ([1]; 1 μM in presynaptic terminals, 100-Hz stimulation, within 40 s) | fidelity of neurotransmission (ratio of postsynaptic APs to presynaptic APs) ([1]; 1 μM) | recovery from STD (time constants of Ca2+-dependent fast and Ca2+-independent slow components) ([2]; calyx of Held) | short-term depression (STD) of EPSCs ([2]; calyx of Held loaded with LP-935509, 100 Hz train, 0.3 s, compared to controls, p<0.05, n=7) | pool size of readily releasable SVs [2, 5] | release probability [2, 5] | exocytosis (exocytic capacitance change, ΔCm) [3] | presynaptic Ca2+ current charge (QCa) [3] | endocytic capacitance change ([3]; p<0.05, n=6) | spontaneous synaptic currents in iN [4]
COc1ncccc1-c1cnn2ccc(N3CCN(C(=O)OC(C)C)CC3)nc12 [LP-935509] | ~ 50% | significantly impaired | significantly prolonged | stronger STD | reduced | without affecting | did not indicate a significant reduction; also recorded: remained unchanged | remained unchanged | significantly prolonged | 
N#Cc1cc2[nH]c(=O)c(=O)[nH]c2cc1[N+](=O)[O-] [CNQX] |  |  |  |  |  |  |  |  |  | abolished
